Results from article PMC12920294, “Optimizing uPAR-targeting radiopeptides for improved tissue distribution: progress towards radionuclide therapy” (European Journal of Nuclear Medicine and Molecular Imaging, 2025).

Assays:
[1] = tested on: HEK-uPAR xenograft-bearing mice; conditions: mouse, in vivo
Procedure: Single-photon emission computed tomography/computed tomography (SPECT/CT) experiments were performed using a small-animal SPECT/CT camera (NanoSPECT/CTTM, Mediso Medical Imaging Systems, Budapest, Hungary) as described previously (Supplementary Material). HEK-uPAR xenografted nude mice were scanned at 1 h, 4 h, 24 h […] after injection of the respective radiopeptide (25 MBq, 0.5 nmol, in 100 μL 0.9% NaCl containing 0.05% bovine serum albumin (BSA)) The images were prepared using VivoQuant post-processing software (version 3.5, inviCRO Imaging Services and Software, Boston, USA). A Gauss post-reconstruction filter (full width at half maximum, 1.0 mm) was applied and the scale of activity was set as indicated on the images (minimum value = 0.2 Bq/voxel, maximum value = 20 Bq/voxel). Methods: SPECT/CT experiments were performed with CD1 nude mice (Crl:CD1-Foxn1^nu) approximately 3-9 weeks after HEK-uPAR cell inoculation. The mice were scanned 1 h, 4 h and 24 h post injection (p.i.) of the respective radiopeptide (25 MBq, 0.5 nmol, 100 μL, diluted in 0.9% NaCl containing 0.05% bovine serum albumin (BSA)). Imaging studies were performed using a four-head, multiplexing, multi-pinhole small-animal SPECT/CT camera (NanoSPECT/CT^TM, Mediso Medical Imaging Systems, Budapest, Hungary). Each head was outfitted with a tungsten-based aperture of nine 1.4 mm-diameter pinholes and a thickness of 10 mm. CT scans of 7-9 min duration were followed by SPECT scans of 45-50 min. The images were acquired using Nucline Software (version 10.2, Mediso Ltd., Budapest, Hungary). The real-time CT reconstruction used a cone-beam filtered backprojection. The reconstruction of SPECT data was performed with HiSPECT software (version 1.4.3049, […] GmbH, Göttingen, Germany) using γ-energies of 56.1 keV (± 10%), 112.9 keV (± 10%) and 208.4 keV (± 10%) for lutetium-177. The images were prepared using VivoQuant post-processing software (version 3.5, inviCRO Imaging Services and Software, Boston, USA). A Gauss post-reconstruction filter (full width at half maximum, 1.0 mm) was applied and the scale of activity was set as indicated on the images (minimum value = 0.2 Bq/voxel, maximum value = 20 Bq/voxel).

human uPAR = target: T1, human uPAR (Homo sapiens, UniProt Q03405); experiment: uPAR-binding affinity, saturation binding on HEK-uPAR cells; conditions: 4 °C
T1 construct: host or cells: HEK cells transfected with human uPAR (HEK-uPAR)
Procedure: To determine the uPAR-binding affinity of the radiopeptides, saturation binding experiments were performed according to a previously published procedure using HEK-uPAR cells in 48-well plates (Supplementary Material). The assay was performed on ice (at 4 °C) to prevent target internalization upon binding of the radiopeptides. The cells were incubated with the radiopeptides in the presence or absence of excess AE105 (40 µM) together with the respective radiopeptides at concentrations ranging between 1 nM and 1600 nM. After removal of the supernatant, the HEK-uPAR cells were rinsed and lysed to be measured using a γ-counter (Wallac Wizard 1480, PerkinElmer). The KD values were determined by plotting the specific binding (values of cell samples incubated without AE105 minus the respective values of samples incubated with AE105) against the molar concentration of the added peptide. A nonlinear regression analysis was performed using GraphPad Prism software (version 10.1.1). The results are reported as average of KD values ± SD of n = 3 independent experiments. Methods: HEK-uPAR cells were seeded in poly-D-lysine-coated 48-well plates (0.25 × 10^6 in 0.5 mL per well) using DMEM culture medium with supplements. The cells were incubated at 37 °C and 5% CO2 overnight to allow adhesion and growth. The well plates with HEK-uPAR cells were placed on ice for the entire experiment to prevent internalization of the radiopeptides. After removal of the medium, the HEK-uPAR cells were rinsed with cold PBS (0.5 mL, pH 7.4) followed by the addition of DMEM culture medium without supplements (450 µL/well) in the presence or absence of AE105 (final concentration 40 µM) as a receptor blocking agent. The cells were incubated for 30 min on ice. The respective radiopeptides (5 MBq/nmol) were diluted in PBS at peptide concentrations 10‒16000 nM. A volume of 50 µL from each dilution was added to each well to obtain peptide concentrations in the range of […]. The assay was performed at 4 °C on ice, to prevent internalization of the radiopeptides. The radiopeptides were incubated on cells for 1 h on a shaker before rinsing twice with PBS (0.5 mL, pH 7.4). Increasing ligand concentrations were used to approximate saturation of the binding sites (Bmax value) at equilibrium. Ligand depletion effects of the ligand concentration in the supernatant of the cell samples were not taken into account. The cells were lysed using an aqueous NaOH solution (1 M, 600 µL) and the lysates were transferred to radioimmunoassay tubes for counting the activity in a γ-counter (Wallac Wizard 1480, PerkinElmer). The KD values were determined by plotting the specific binding (total binding minus unspecific binding) against the molar concentration of the added radiopeptide using GraphPad Prism software (version 10.1.1). The results were then expressed as average ± SD of n = 3 independent experiments.

[2] = tested on: HEK-uPAR xenograft-bearing mice; conditions: mouse, in vivo; remark: listed apart in the source
Procedure: HEK-uPAR xenografted mice were injected with the respective radiopeptide (5 MBq, 0.5 nmol/mouse, 100 µL 0.9% NaCl containing 0.05% BSA) and sacrificed at 4 h and 24 h after injection. […] The tissues and organs of interest were collected, weighed and counted for activity using a γ-counter (Wallac Wizard 1480, PerkinElmer). […] The results were presented as the average ± SD of n = 3 mice. The time-activity curves were determined for the uptake of [^177Lu]Lu-DOTA-AE105 and [^177Lu]Lu-uPAR-11 in the blood, HEK-uPAR xenografts, kidneys and liver based on non-decay corrected biodistribution data. For the blood, the initial uptake (t = 0) was set as 50% IA/g assuming a blood volume of 2 mL for CD1 nude mice. The initial uptake value (t = 0) for all other organs and tissues was set as 0% IA/g. […] The area under the curves over 48 h after injection (AUC0h→48 h) was calculated using GraphPad Prism software (version 10.1.1). Statistical analyses were performed by applying a one-way ANOVA test with a Dunnet’s multiple comparison post‐test to compare the data of the new radiopeptides with those of [^177Lu]Lu-DOTA-AE105 and a Tukey’s multiple comparisons post‐test to compare the novel radiopeptides among them. A p-value of < 0.05 was considered a statistically significant difference using GraphPad Prism software (version 10.1.1).

T1 sequence (Q03405 23-335): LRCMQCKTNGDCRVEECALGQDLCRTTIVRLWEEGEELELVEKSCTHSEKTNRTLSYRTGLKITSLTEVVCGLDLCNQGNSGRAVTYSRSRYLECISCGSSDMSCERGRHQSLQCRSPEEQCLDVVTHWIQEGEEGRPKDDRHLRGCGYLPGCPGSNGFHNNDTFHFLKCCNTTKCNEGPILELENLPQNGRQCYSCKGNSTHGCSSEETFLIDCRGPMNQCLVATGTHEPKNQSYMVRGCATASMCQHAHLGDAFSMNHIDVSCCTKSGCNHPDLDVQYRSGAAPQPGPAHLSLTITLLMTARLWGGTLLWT

Cc1ccc(CCCC(=O)NCCOCCOCCOCCOCCC(=O)NCCCC[C@H](NC(=O)CN2CCN(CC(=O)O)CCN(CC(=O)O)CCN(CC(=O)O)CC2)C(=O)N[C@@H](CC(=O)O)C(=O)N[C@@H](CC2CCCCC2)C(=O)N[C@@H](Cc2ccccc2)C(=O)N[C@H](CO)C(=O)N[C@H](CCCNC(=N)N)C(=O)N[C@@H](Cc2ccc(O)cc2)C(=O)N[C@@H](CC(C)C)C(=O)N[C@@H](Cc2c[nH]c3ccccc23)C(=O)N[C@@H](CO)C(N)=O)cc1 [[^177Lu]Lu-uPAR-11, metal not drawn]
SPECT/CT: accumulation in HEK-uPAR xenograft [1]: highest at 1 h p.i. and relatively well retained over the following hours | Kd (human uPAR): 37 ± 11 nM | AUC0h→48h, HEK-uPAR xenograft [2]: 410 ± 21 % IA/g*h | AUC0h→48h, blood [2]: 109 ± 6 % IA/g*h | AUC0h→48h, kidneys [2]: 103 ± 5 % IA/g*h | AUC0h→48h, liver [2]: 38 ± 2 % IA/g*h | Blood AUC0h→48h relative to [177Lu]Lu-DOTA-AE105 [2]: 3.9 fold | HEK-uPAR xenograft AUC0h→48h relative to [177Lu]Lu-DOTA-AE105 [2]: 16 fold | Kidneys AUC0h→48h relative to [177Lu]Lu-DOTA-AE105 [2]: ~ 1.7 fold | Liver AUC0h→48h relative to [177Lu]Lu-DOTA-AE105 [2]: ~ 5.5 fold | Xenograft-to-blood AUC0h→48h ratio relative to [177Lu]Lu-DOTA-AE105 [2]: 4.2 fold

Cc1ccc(CCCC(=O)NCCCCCCCC(=O)NCCCC[C@H](NC(=O)CN2CCN(CC(=O)O)CCN(CC(=O)O)CCN(CC(=O)O)CC2)C(=O)N[C@@H](CC(=O)O)C(=O)N[C@@H](CC2CCCCC2)C(=O)N[C@@H](Cc2ccccc2)C(=O)N[C@H](CO)C(=O)N[C@H](CCCNC(=N)N)C(=O)N[C@@H](Cc2ccc(O)cc2)C(=O)N[C@@H](CC(C)C)C(=O)N[C@@H](Cc2c[nH]c3ccccc23)C(=O)N[C@@H](CO)C(N)=O)cc1 [[^177Lu]Lu-uPAR-12, metal not drawn]
SPECT/CT: blood retention [1]: substantial blood retention was observed over the entire time of investigation | Kd (human uPAR): 38 ± 9 nM | Xgrft-to-liver ratio [2]: 1.3 ± 0.1

Cc1ccc(CCCC(=O)NCCOCCOCCOCCOCCC(=O)NC[C@H](NC(=O)CN2CCN(CC(=O)O)CCN(CC(=O)O)CCN(CC(=O)O)CC2)C(=O)N[C@@H](CC(=O)O)C(=O)N[C@@H](CC2CCCCC2)C(=O)N[C@@H](Cc2ccccc2)C(=O)N[C@H](CO)C(=O)N[C@H](CCCNC(=N)N)C(=O)N[C@@H](Cc2ccc(O)cc2)C(=O)N[C@@H](CC(C)C)C(=O)N[C@@H](Cc2c[nH]c3ccccc23)C(=O)N[C@@H](CO)C(N)=O)cc1 [[^177Lu]Lu-uPAR-14, metal not drawn]
SPECT/CT: accumulation in HEK-uPAR xenograft [1]: almost entirely cleared at 24 h p.i. | Kd (human uPAR): 37 ± 7 nM | Xgrft-to-liver ratio [2]: 7.4 ± 1.0

Cc1ccc(CCCC(=O)NCCOCCOCCOCCC(=O)NCCCC[C@H](NC(=O)CN2CCN(CC(=O)O)CCN(CC(=O)O)CCN(CC(=O)O)CC2)C(=O)N[C@@H](CC(=O)O)C(=O)N[C@@H](CC2CCCCC2)C(=O)N[C@@H](Cc2ccccc2)C(=O)N[C@H](CO)C(=O)N[C@H](CCCNC(=N)N)C(=O)N[C@@H](Cc2ccc(O)cc2)C(=O)N[C@@H](CC(C)C)C(=O)N[C@@H](Cc2c[nH]c3ccccc23)C(=O)N[C@@H](CO)C(N)=O)cc1 [[^177Lu]Lu-uPAR-15, metal not drawn]
SPECT/CT: accumulation in HEK-uPAR xenograft [1]: highest at 1 h p.i. and relatively well retained over the following hours | Kd (human uPAR): 42 ± 3 nM | Xgrft-to-liver ratio [2]: 6.5 ± 1.7

Cc1ccc(CCCC(=O)NCCOCCOCCOCCOCCC(=O)NCCCC[C@H](NC(=O)CC[C@H](C(=O)O)N2CCN(CC(=O)O)CCN(CC(=O)O)CCN(CC(=O)O)CC2)C(=O)N[C@@H](CC(=O)O)C(=O)N[C@@H](CC2CCCCC2)C(=O)N[C@@H](Cc2ccccc2)C(=O)N[C@H](CO)C(=O)N[C@H](CCCNC(=N)N)C(=O)N[C@@H](Cc2ccc(O)cc2)C(=O)N[C@@H](CC(C)C)C(=O)N[C@@H](Cc2c[nH]c3ccccc23)C(=O)N[C@@H](CO)C(N)=O)cc1 [[^177Lu]Lu-uPAR-17, metal not drawn]
SPECT/CT: accumulation in HEK-uPAR xenograft [1]: almost entirely cleared at 24 h p.i. | Kd (human uPAR): 31 ± 6 nM | Kidneys uptake ([2]; CD1 nude, 0.5 nmol/mouse, 24 h): 1.3 ± 0.2 %IA/g | Xgrft-to-liver ratio [2]: 10 ± 3

Cc1ccc(CCCC(=O)NCCOCCOCCOCCOCCOCCC(=O)NCCCC[C@H](NC(=O)CN2CCN(CC(=O)O)CCN(CC(=O)O)CCN(CC(=O)O)CC2)C(=O)N[C@@H](CC(=O)O)C(=O)N[C@@H](CC2CCCCC2)C(=O)N[C@@H](Cc2ccccc2)C(=O)N[C@H](CO)C(=O)N[C@H](CCCNC(=N)N)C(=O)N[C@@H](Cc2ccc(O)cc2)C(=O)N[C@@H](CC(C)C)C(=O)N[C@@H](Cc2c[nH]c3ccccc23)C(=O)N[C@@H](CO)C(N)=O)cc1 [[^177Lu]Lu-uPAR-18, metal not drawn]
SPECT/CT: accumulation in HEK-uPAR xenograft [1]: highest at 1 h p.i. and relatively well retained over the following hours | Kd (human uPAR): 33 ± 4 nM | Xgrft-to-liver ratio [2]: 20 ± 3
